Assay [1] concerns the target T1, Human Cathepsin L (Homo sapiens, UniProt P07711).
T1 construct: purchased CN Biosciences
As to the kind of experiment: Cathepsin peptidase activity assay (Ki), human cathepsin L. The settings on record: pH 6.5, 25±1° C. It counts as biochemical. The protocol: (§1) Assay protocols were based on literature precedent (Tablel; Barrett, A. J., Rawlings, N. D. and Woessner, J. F., 1998, Handbook of Proteolytic Enzymes, Academic Press, London and references therein) and modified as required to suit local assay protocols. Enzyme was added as required to initiate the reaction and the activity, as judged by the change in fluorescence upon conversion of substrate to product, was monitored over time. All assays were carried out at 25±1° C.
(§2) Bovine cathepsin S, human cathepsin L, human cathepsin H and human cathepsin B were obtained from CN Biosciences. Recombinant human cathepsin S, human cathepsin K and human cathepsin X were obtained from Dr. Boris Turk (Josef Stefan Institute, Ljubljana, Slovenia). Unless otherwise stated, all peptidase activity assays were carried out in 10 mM bis-tris-propane (BTP), pH 6.5 containing 1 mM EDTA, 5 mM 2-mercaptoethanol and 1 mM CaCl2. Human cathepsin H activity assays were carried out in 10 mM BTP pH 6.5, 142 MM NaCl2 1 mM CaCl2, 1 mM EDTA, 1 mM DTr, 0.035 mM Zwittergent 3-16. […] The rate of conversion of substrate to product was derived from the slope of the increase in fluorescence monitored continuously over time.
(§3) The apparent inhibition constant (Ki) for each compound was determined on the basis that inhibition was reversible and occurred by a pure-competitive mechanism. The Ki values were calculated, from the dependence of enzyme activity as a function of inhibitor concentration, by direct regression analysis (Prism v 3.02) using Equation 2 (Cornish-Bowden, A., 1995.). […]
(§4) In situations where the apparent dissociation constant (Ki^app) approached the enzyme concentrations, the Ki^app values were calculated using a quadratic solution in the form described by Equation 3 (Morrison, J. F. Trends Biochem. Sci., 7, 102-105, 1982; Morrison, J. F. Biochim. Biophys. Acta, 185, 269-286, 1969; Stone, S.R. and Hofsteenge, J. Biochemistry, 25, 4622-4628, 1986). […]

Assay [2] concerns the target T2, Cruzipain (Trypanosoma cruzi, UniProt P25779).
T2 construct: Wild-type cruzipain, derived from Trypanosoma cruzi Dm28 epimastigotes, was obtained from Dr. Julio Scharfstein; tissue Dr. Julio Scharfstein (Instituto de Biofisica Carlos Chagas Filho, Universidade Federal do Rio de Janeiro); host or cells: Trypanosoma cruzi Dm28 epimastigotes
As to the kind of experiment: Trypanosoma cruzi cruzipain peptidase activity assay (Ki). The following applies: wild-type cruzipain, pH 6.75, 25±1° C. Format: biochemical. The protocol:
as §1
Wild-type cruzipain, derived from Trypanosoma cruzi Dm28 epimastigotes, was obtained from Dr. Julio Scharfstein (Instituto de Biofisica Carlos Chagas Filho, Universidade Federal do R10 de Janeiro, R10 de Janeiro, Brazil). Activity assays were carried out in 100 mM sodium phosphate, pH 6.75 containing 1 mM EDTA and 10 mM L-cysteine using 2.5 nM enzyme. Ac-Phe-Arg-AMC (KM^app≈12 1M) and D-Val-Leu-Lys-AMC (KM^app≈4 1M) were used as the substrates. Routinely, Ac-FR-AMC was used at a concentration equivalent to KM^app and D-Val-Leu-Lys-AMC was used at a concentration of 25 μM. The rate of conversion of substrate to product was derived from the slope of the increase in fluorescence monitored continuously over time.
The apparent inhibition constant (Ki) for each compound was determined on the basis that inhibition was reversible and occurred by a pure-competitive mechanism. The Ki values were calculated, from the dependence of enzyme activity as a function of inhibitor concentration, by direct regression analysis (Prism v 3.02) using Equation 2 (Cornish-Bowden, A., 1995.). [formula] […]
as §4

For assay [3], the target named is T3, Bovine Cathepsin S (Bos taurus, UniProt P25326).
T3 construct: purchased CN Biosciences
As to the kind of experiment: Cathepsin peptidase activity assay (Ki), bovine cathepsin S. The settings on record: pH 6.5, 25±1° C. Format: biochemical. As for the experimental part: as §1, §2, §3, §4

Assay [4] addresses T4, Human Cathepsin K (Homo sapiens, UniProt P43235).
T4 construct: purchased Dr. Boris Turk (Josef Stefan Institute, Ljubljana, Slovenia)
T4 sequence (P43235 115-329): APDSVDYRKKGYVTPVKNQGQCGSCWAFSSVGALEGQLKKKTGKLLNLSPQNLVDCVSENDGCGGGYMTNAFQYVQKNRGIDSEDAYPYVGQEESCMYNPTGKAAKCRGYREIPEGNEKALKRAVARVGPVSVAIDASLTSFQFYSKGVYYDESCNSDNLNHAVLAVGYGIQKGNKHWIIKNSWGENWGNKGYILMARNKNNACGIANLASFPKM
As to the kind of experiment: Cathepsin peptidase activity assay (Ki), human cathepsin K. Format: biochemical. The settings on record: pH 5.5, 25±1° C. As for the experimental part: as §1, §2, §3, §4

Assay [5] relates to Trypanosoma cruzi-infected mammalian cell cultures. The settings on record: addition to infected mammalian cell cultures; cited from earlier work.
Assay [6] deals with Trypanosoma cruzi infection. The following applies: acute phase of infection; cited from earlier work.

pKi: −log10 of the molar value.

T3 sequence (P25326 115-331): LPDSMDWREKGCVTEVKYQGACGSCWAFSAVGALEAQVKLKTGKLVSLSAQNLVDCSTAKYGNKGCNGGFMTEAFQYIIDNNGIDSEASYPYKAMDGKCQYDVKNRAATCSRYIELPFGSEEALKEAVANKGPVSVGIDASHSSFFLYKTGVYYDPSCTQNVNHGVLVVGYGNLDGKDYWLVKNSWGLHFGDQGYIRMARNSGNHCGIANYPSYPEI
T2 sequence (P25779 123-467): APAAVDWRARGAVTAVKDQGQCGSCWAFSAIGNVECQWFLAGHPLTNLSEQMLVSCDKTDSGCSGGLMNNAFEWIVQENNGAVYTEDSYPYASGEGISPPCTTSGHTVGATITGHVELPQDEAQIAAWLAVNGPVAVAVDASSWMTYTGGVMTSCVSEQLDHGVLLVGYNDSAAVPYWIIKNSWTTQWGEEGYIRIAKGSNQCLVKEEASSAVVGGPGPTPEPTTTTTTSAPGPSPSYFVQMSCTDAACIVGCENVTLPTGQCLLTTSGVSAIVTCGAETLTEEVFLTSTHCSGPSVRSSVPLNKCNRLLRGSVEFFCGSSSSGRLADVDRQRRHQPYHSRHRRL
T1 sequence (P07711 114-333): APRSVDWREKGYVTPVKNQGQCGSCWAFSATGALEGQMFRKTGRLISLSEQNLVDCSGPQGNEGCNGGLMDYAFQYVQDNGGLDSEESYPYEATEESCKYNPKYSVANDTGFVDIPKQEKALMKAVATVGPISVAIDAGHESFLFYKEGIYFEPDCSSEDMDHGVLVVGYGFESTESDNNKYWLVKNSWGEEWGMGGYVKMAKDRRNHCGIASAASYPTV

As usually defined, the pKi is −log10 of the Ki, conventionally taken in molar units. Read a low pKi as a high Ki. In the case of `C[C@H]1OCC(=O)[C@]1(C)NC(=O)[C@H](Cc1ccc(O)cc1)NC(=O)c1csc(-c2cccnc2)n1` [Example 6, (2R, 3R) 2-Pyridin-3-yl-thiazole4-carboxylic acid [1-(2,3-dimethyl-4oxo-tetrahydrofuran-3-ylcarbamoyl)-2-(4-hydroxyphenyl)-ethyl]-amide], the pKi was under 4.30 in assay [1], over 5.70 in assay [2], under 4.30 in assay [3] and under 4.00 in assay [4].
For `C[C@H]1OCC(=O)[C@]1(C)NC(=O)[C@H](CC1CCCCC1)NC(=O)c1ccoc1` [Example 19, (2R, 3R) Furan-3-carboxylic acid [2-cyclohexyl-1-(2,3-dimethyl-oxo-tetrahydrofuran-3-ylcaxbamoyl)-ethyl]-amide], the pKi was under 4.30 in assay [1], under 4.30 in assay [2], over 5.70 in assay [3] and under 4.30 in assay [4].
For the compound `C[C@H]1OCC(=O)[C@]1(C)NC(=O)[C@H](Cc1ccc(O)cc1)NC(=O)c1cccc2ccccc12` [Example 27, (2R, 3R) Naphthalene-1-carboxylic acid [1-(2,3-dimethyl-4-oxo-tetrahydrofuran-3-ylcarbamoyl)-2-(4-hydroxyphenyl)-ethyl]-amide], the pKi in assay [1] is over 5.30; in assay [2], under 4.70; in assay [3] it was under 4.30; in assay [4], under 4.00.
With `CC(NC(=O)C(Cc1ccccc1)NC(=O)OCc1ccccc1)C(=O)CF` (stereo not drawn) [Z-Phe-Ala-FMK], the “effect on parasite replication and differentiation” value in assay [5] was “blocked replication and differentiation of the parasite”.
With `O=C(Cn1ccnc1[N+](=O)[O-])NCc1ccccc1` [benznidazole], the cure in assay [6] is 60%.

Source of the values: patent US20040127549A1, “Cyclic 2-carbonylaminoketones as inhibitors of cruzipain and other cysteine proteases” (priority 2001, published 2004).
